Measurements reported in patent publication US20250122155A1, “NOVEL INDOLE DERIVATIVE, PHARMACEUTICAL COMPOSITION COMPRISING SAME, AND USE THEREOF” (MITOIMMUNE THERAPEUTICS INC., priority 2021, published 2025).

How the values were obtained:
[1] = test system: PC-12 cells; assay: Cell death protective effect in adrenal cells against Erastin, glutamate and RSL3 (LDH); type: cell-based, rat; conditions: 24 hours
Description: (§1) In order to identify the protective effect on adrenal cells, PC-12 cells were divided into 96-well plates by 1×10^4 and cultured for 18 to 24 hours. The compounds of Examples were diluted to final concentrations of 0.1 and 1.0 μM in Erastin, 0.01 and 0.1 in glutamate, and 0.3 and 3.0 μM in RSL3, treated in each well, and incubated for 15 to 20 minutes. Erastin, glutamate, and RSL3 were treated to have final concentrations of 1 μM, 10 mM, and 0.3 μM, respectively, and cultured for 24 hours. In order to identify the protective effect of each compound, the degree of LDH extracellular secretion was measured using cytotoxicity LDH assay kit [Dojindo; CK12]. Briefly, at the time when the treatment of the cells with Erastin, glutamate, and RSL3 for 24 hours is completed, the supernatants containing the cells are taken by 70 μL and transferred to a new 96-well plate. The assay buffer included in the kit is added in an amount of 70 μL/well (the same amount as the sample) thereto, and then the plate is wrapped with a foil and the reaction is performed at room temperature for 15 minutes. After observing the changed color of the sample, the stop solution was added in an amount of 35 µL/well thereto, and then the 0 inhibition value was calculated by measuring the absorbance value at a wavelength of 490 nm using an iD3 spectrophotometer.

[2] = test system: H9C2 cells; assay: Cell death protective effect in cardiac myocytes against Erastin, glutamate and RSL3 (LDH); type: cell-based, rat; conditions: 24 hours
Description: as §1, with “on cardiac” for “on adrenal”, “cells, H9C2” for “cells, PC-12”, “and 1 μM,” for “and 1.0 μM in Erastin, 0.01 and 0.1 in glutamate, and 0.3 and 3.0 μM in RSL3,”, “μM, 25” for “μM, 10”, “and 0.5” for “and 0.3”, “minutes.” for “minutes. After observing the changed color of the sample, the stop solution was added in an amount of 35 µL/well thereto, and then the 0 inhibition value was calculated by measuring the absorbance value at a wavelength of 490 nm using an iD3 spectrophotometer.”

[3] = test system: NRK-49F cells; assay: Cell death protective effect in renal fibroblasts against Erastin, glutamate and RSL3 (LDH); type: cell-based, rat; conditions: 24 hours
Description: In order to identify the protective effect on renal fibroblasts, NRK-49F cells were divided into 96-well plates by 1×10^4 and cultured for 18 to 24 hours. The compounds of Examples were diluted to final concentrations of 0.1 and 1 μM, treated in each well, and incubated for 15 to 20 minutes. Erastin, glutamate, and RSL3 were treated to have final concentrations of 3 μM, 75 mM, and 3 μM, respectively, and cultured for 24 hours. In order to identify the protective effect of each compound, the degree of LDH extracellular secretion was measured using cytotoxicity LDH assay kit [Dojindo; CK12]. Briefly, at the time when the treatment of the cells with Erastin, glutamate, and RSL3 for 24 hours is completed, the supernatants containing the cells are taken by 70 μl and transferred to a new 96-well plate. The assay buffer included in the kit is added in an amount of 70 μL/well (the same amount as the sample) thereto, and then the plate is wrapped with a foil and the reaction is performed at room temperature for 15 minutes.

[4] = test system: ARPE-19 cells; assay: Cell death protective effect in retinal epithelial cells against Erastin and RSL3 (LDH); type: cell-based, human; conditions: 24 hours
Description: In order to identify the protective effect on retinal epithelial cells, ARPE-19 cells were divided into 96-well plates by 1×10^4 and cultured for 18 to 24 hours. The compounds of Examples were diluted to final concentrations of 0.03 and 0.3 μM, treated in each well, and incubated for 20 minutes. Erastin, and RSL3 were treated to have final concentrations of 10 μM, and 0.3 μM, respectively, and cultured for 24 hours. In order to identify the protective effect of each compound, the degree of LDH extracellular secretion was measured using cytotoxicity LDH assay kit [Dojindo; CK12]. Briefly, at the time when the treatment of the cells with Erastin, and RSL3 for 24 hours is completed, the supernatants containing the cells are taken by 70 μL and transferred to a new 96-well plate. The assay buffer included in the kit is added in an amount of 70 μL/well (the same amount as the sample) thereto, and then the plate is wrapped with a foil and the reaction is performed at room temperature for 15 minutes.

[5] = test system: MLE-12 cells; assay: Cell death protective effect in lung epithelial cells against RSL3 (LDH); type: cell-based, rat; conditions: MLE-12, RSL3 1.0 μM, 24 hours
Description: In order to identify the protective effect on lung epithelial cells, MLE-12 cells were divided into 96-well plates by 5×10^3 and cultured for 18 to 24 hours. The compounds of Examples were diluted to final concentrations of 0.1 and 1.0 μM, treated in each well, and incubated for 20 minutes. RSL3 was treated to have final concentrations of 1.0 μM, respectively, and cultured for 24 hours. In order to identify the protective effect of each compound, the degree of LDH extracellular secretion was measured using cytotoxicity LDH assay kit [Dojindo; CK12]. Briefly, at the time when the treatment of the cells with RSL3 for 24 hours is completed, the supernatants containing the cells are taken by 70 μL and transferred to a new 96-well plate. The assay buffer included in the kit is added in an amount of 70 μL/well (the same amount as the sample) thereto, and then the plate is wrapped with a foil and the reaction is performed at room temperature for 15 minutes.

[6] = PC-12, Erastin 1 μM, compound 0.1 μM
[7] = PC-12, Erastin 1 μM, compound 1.0 μM
[8] = PC-12, Glutamate 10 mM, compound 0.01 μM
[9] = PC-12, Glutamate 10 mM, compound 0.1 μM
[10] = PC-12, RSL3 0.3 μM, compound 0.3 μM
[11] = PC-12, RSL3 0.3 μM, compound 3.0 μM
[12] = H9C2, Erastin 1 μM, compound 0.1 μM
[13] = H9C2, Erastin 1 μM, compound 1.0 μM
[14] = H9C2, Glutamate 25 mM, compound 0.1 μM
[15] = H9C2, Glutamate 25 mM, compound 1.0 μM
[16] = H9C2, RSL3 0.5 μM, compound 0.1 μM
[17] = H9C2, RSL3 0.5 μM, compound 1.0 μM
[18] = Glutamate 75 mM, compound 0.1 μM
[19] = Glutamate 75 mM, compound 1.0 μM
[20] = ARPE-19, Erastin 10 μM, compound 0.03 μM
[21] = ARPE-19, Erastin 10 μM, compound 0.3 μM
[22] = ARPE-19, RSL3 0.3 μM, compound 0.03 μM
[23] = ARPE-19, RSL3 0.3 μM, compound 0.3 μM

Compound | inhibition (%) [1, 6] | inhibition (%) [1, 7] | inhibition (%) [1, 8] | inhibition (%) [1, 9] | inhibition (%) [1, 10] | inhibition (%) [1, 11] | inhibition (%) [2, 12] | inhibition (%) [2, 13] | inhibition (%) [2, 14] | inhibition (%) [2, 15] | inhibition (%) [2, 16] | inhibition (%) [2, 17] | inhibition (%) ([3]; Erastin 3 μM, compound 0.1 μM) | inhibition (%) ([3]; Erastin 3 μM, compound 1.0 μM) | inhibition (%) [3, 18] | inhibition (%) [3, 19] | inhibition (%) ([3]; RSL3 3 μM, compound 0.1 μM) | inhibition (%) ([3]; RSL3 3 μM, compound 1.0 μM) | inhibition (%) [4, 20] | inhibition (%) [4, 21] | further results
COCCOCc1cc(NC2CCOCC2)c2[nH]cc(C)c2c1 [Example 50, 5-(2-methoxyethoxymethyl)-3-methyl-N-tetrahydropyran-4-yl-1H-indol-7-amine] | 41% | 68% | 16% | 25% | 0% | 100% | 16% | 18% | 0% | 49% | 7% | 4% | 3% | 99% | 4% | 73% | 16% | 18% | 19% | 86% | inhibition (%) [4, 22]: 4%; inhibition (%) [4, 23]: 45%; inhibition (%) ([5]; compound 0.1 μM): 0%; inhibition (%) ([5]; compound 1.0 μM): 56%
CCOCCOCc1cc(NC2CCCC2)c2[nH]c(-c3ccccc3)cc2c1 [Example 36, N-cyclopentyl-5-(2-ethoxyethoxymethyl)-2-phenyl-1H-indol-7-amine] | 100% | 100% | 61% | 95% | 100% | 100% | 100% | 100% | 99% | 97% | 98% | 99% | 99% | 99% | 100% | 100% | 98% | 99% | 98% | 100% | inhibition (%) [4, 22]: 100%; inhibition (%) [4, 23]: 100%; inhibition (%) ([5]; compound 0.1 μM): 89%; inhibition (%) ([5]; compound 1.0 μM): 94%
COCCOCc1cc(NC2CCNCC2)c2[nH]c(-c3ccccc3)cc2c1 [Example 64, 5-((2-methoxyethoxy)methyl)-2-phenyl-N-(piperidin-4-yl)-1H-indol-7-amine] | 100% | 100% | 39% | 97% | 78% | 100% | 100% | 100% | 97% | 97% | 90% | 95% | 100% | 100% | 7% | 99% | 70% | 100% | 100% | 100% | inhibition (%) [4, 22]: 67%; inhibition (%) [4, 23]: 100%; inhibition (%) ([5]; compound 0.1 μM): 100%; inhibition (%) ([5]; compound 1.0 μM): 98%
COCCOCc1cc(NCc2ccncc2)c2[nH]c(-c3ccccc3)cc2c1 [Example 45, 5-(2-methoxyethoxymethyl)-2-phenyl-N-(4-pyridylmethyl)-1H-indol-7-amine] | 100% | 100% | 57% | 100% | 100% | 100% | 100% | 100% | 98% | 96% | 99% | 97% | 99% | 98% | 100% | 98% | 99% | 98% | 100% | 100% | inhibition (%) [4, 22]: 100%; inhibition (%) [4, 23]: 100%; inhibition (%) ([5]; compound 0.1 μM): 98%; inhibition (%) ([5]; compound 1.0 μM): 100%
